In US9833497B2, “Human originated EGF domain proteins and use of the same” (CHENGDU SOURCEBIO LIMITED-LIABILITY COMPANY, priority 2013, dated 2017):

Experiments:
Assay type in all cases: cell-based
E. coli DH5α = assay: Antibacterial activity: MIC and growth curve against E. coli DH5α in 96-well plate; conditions: minimal inhibitory concentration against E. coli DH5α; 96-well plate, 5×10^5 CFU/mL, 37° C., judged after 8 h
Outline: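 Log-phase bacteria (OD600 ~0.5) resuspended in LB at 5×10^5 CFU/mL, exposed to recombinant protein at 50, 25, 12.5 μg/mL final in triplicate, 37 °C shaking at 175 rpm. OD600 read every 30 min; MIC is lowest concentration showing no growth.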

E. coli BL21 = assay: MIC against Gram-negative bacteria: E. coli BL21
Outline: (§1)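 Bacteria grown in LB at 37° C to McFarland 0.5, resuspended and seeded at 5×10^5 CFU/mL in 96-well plates. Purified human EGF-domain proteins two-fold serially diluted, triplicate wells; cultured at 37° C, shaking 175 rpm. MIC = lowest protein concentration with no growth.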

Pseudomonas aeruginosa = assay: MIC against Gram-negative bacteria: Pseudomonas aeruginosa
Outline: as §1

Klebsiella pneumonia = assay: MIC against Gram-negative bacteria: Klebsiella pneumonia
Outline: as §1

Enterobacter cloacae = assay: MIC against Gram-negative bacteria: Enterobacter cloacae
Outline: as §1

Aeromonas hydrophila = assay: MIC against Gram-negative bacteria: Aeromonas hydrophila
Outline: as §1

Citrobacter diversus = assay: MIC against Gram-negative bacteria: Citrobacter diversus
Outline: as §1

Moraxella catarrhalis = assay: MIC against Gram-negative bacteria: Moraxella catarrhalis
Outline: as §1

Proteus mirabilis = assay: MIC against Gram-negative bacteria: Proteus mirabilis
Outline: as §1

Proteus vulgaris = assay: MIC against Gram-negative bacteria: Proteus vulgaris
Outline: as §1

Serratia marcescens = assay: MIC against Gram-negative bacteria: Serratia marcescens
Outline: as §1

[1] = 96-well plate, 5×10^5 CFU/mL, 37° C., 10 h
[2] = E. coli BL21, 10 h cultivation at 37° C., 5×10^5 CFU/mL
[3] = P. aeruginosa, 10 h cultivation at 37° C., 5×10^5 CFU/mL
[4] = K. pneumonia, 10 h cultivation at 37° C., 5×10^5 CFU/mL
[5] = E. cloacae, 10 h cultivation at 37° C., 5×10^5 CFU/mL
[6] = A. hydrophila, 10 h cultivation at 37° C., 5×10^5 CFU/mL
[7] = C. diversus, 10 h cultivation at 37° C., 5×10^5 CFU/mL
[8] = M. catarrhalis, 10 h cultivation at 37° C., 5×10^5 CFU/mL
[9] = P. mirabilis, 10 h cultivation at 37° C., 5×10^5 CFU/mL
[10] = P. vulgaris, 10 h cultivation at 37° C., 5×10^5 CFU/mL
[11] = S. marcescens, 10 h cultivation at 37° C., 5×10^5 CFU/mL
[12] = 10 h cultivation at 37° C., 5×10^5 CFU/mL, two-fold serial dilution

## PRT599 (CECDPDGTISGGICVSHSDPALGSVAGQCLCKENVEGAKCDQCKPNHYGLSATDPLGCQP; listed as Homo sapiens)
E. coli DH5α
  MIC: 12.5 µg/mL
E. coli BL21; [1]
  MIC E. coli BL21: 25 µg/mL
Pseudomonas aeruginosa; [1]
  MIC P. aeruginosa: 50 µg/mL
Klebsiella pneumonia; [1]
  MIC K. pneumonia: 12.5 µg/mL
Enterobacter cloacae; [1]
  MIC E. cloacae: 50 µg/mL
Aeromonas hydrophila; [1]
  MIC A. hydrophila: 12.5 µg/mL
Citrobacter diversus; [1]
  MIC C. diversus: 50 µg/mL
Moraxella catarrhalis; [1]
  MIC M. catarrhalis: 12.5 µg/mL
Proteus mirabilis; [1]
  MIC P. mirabilis: 50 µg/mL
Proteus vulgaris; [1]
  MIC P. vulgaris: 12.5 µg/mL
Serratia marcescens; [1]
  MIC S. marcescens: 50 µg/mL

## PRT778 (QNQSCPVNYCYNQGHCYISQTLGCQPMCTCPPAFTDSRCF; listed as Homo sapiens)
E. coli DH5α
  MIC: 50 µg/mL
E. coli BL21; [2]
  MIC (μg/mL) E. coli BL21: 12.5 µg/mL
Pseudomonas aeruginosa; [3]
  MIC (μg/mL) P. aeruginosa: 50 µg/mL
Klebsiella pneumonia; [4]
  MIC (μg/mL) K. pneumonia: 12.5 µg/mL
Enterobacter cloacae; [5]
  MIC (μg/mL) E. cloacae: 50 µg/mL
Aeromonas hydrophila; [6]
  MIC (μg/mL) A. hydrophila: 12.5 µg/mL
Citrobacter diversus; [7]
  MIC (μg/mL) C. diversus: 12.5 µg/mL
Moraxella catarrhalis; [8]
  MIC (μg/mL) M. catarrhalis: 12.5 µg/mL
Proteus mirabilis; [9]
  MIC (μg/mL) P. mirabilis: 12.5 µg/mL
Proteus vulgaris; [10]
  MIC (μg/mL) P. vulgaris: 25 µg/mL
Serratia marcescens; [11]
  MIC (μg/mL) S. marcescens: 12.5 µg/mL

## PRT1037 (DCSRPCPPGRQKSPRDPCQCVCHGSAVTTQDCC; listed as Homo sapiens)
E. coli DH5α
  MIC: 12.5 µg/mL
E. coli BL21; E. coli BL21, 10 h cultivation at 37° C.
  MIC: 50 µg/mL
Pseudomonas aeruginosa; P. aeruginosa, 10 h cultivation at 37° C.
  MIC: 50 µg/mL
Klebsiella pneumonia; K. pneumonia, 10 h cultivation at 37° C.
  MIC: 12.5 µg/mL
Enterobacter cloacae; E. cloacae, 10 h cultivation at 37° C.
  MIC: 25 µg/mL
Aeromonas hydrophila; A. hydrophila, 10 h cultivation at 37° C.
  MIC: 25 µg/mL
Citrobacter diversus; C. diversus, 10 h cultivation at 37° C.
  MIC: 50 µg/mL
Moraxella catarrhalis; M. catarrhalis, 10 h cultivation at 37° C.
  MIC: 25 µg/mL
Proteus mirabilis; P. mirabilis, 10 h cultivation at 37° C.
  MIC: 12.5 µg/mL
Proteus vulgaris; P. vulgaris, 10 h cultivation at 37° C.
  MIC: 50 µg/mL
Serratia marcescens; S. marcescens, 10 h cultivation at 37° C.
  MIC: 50 µg/mL

## PRT1080 (IQSYCAKHLKCSQKCDQNKFSVKCSCYEGWVLEPDGESCR; listed as Homo sapiens)
E. coli DH5α
  MIC: 50 µg/mL
E. coli BL21; [12]
  MIC E. coli BL21: 25 µg/mL
Pseudomonas aeruginosa; [12]
  MIC P. aeruginosa: 12.5 µg/mL
Klebsiella pneumonia; [12]
  MIC K. pneumonia: 25 µg/mL
Enterobacter cloacae; [12]
  MIC E. cloacae: 50 µg/mL
Aeromonas hydrophila; [12]
  MIC A. hydrophila: 12.5 µg/mL
Citrobacter diversus; [12]
  MIC C. diversus: 12.5 µg/mL
Moraxella catarrhalis; [12]
  MIC M. catarrhalis: 12.5 µg/mL
Proteus mirabilis; [12]
  MIC P. mirabilis: 12.5 µg/mL
Proteus vulgaris; [12]
  MIC P. vulgaris: 25 µg/mL
Serratia marcescens; [12]
  MIC S. marcescens: 50 µg/mL

## PRT525 (CNCNRDGTEPGVCDPGTGACLCKENVEGTECNVCREGSFHLDPANLKGCTS; listed as Homo sapiens)
E. coli DH5α
  MIC: 25 µg/mL
E. coli BL21; [1]
  MIC against E. coli BL21: 12.5 µg/mL
Pseudomonas aeruginosa; [1]
  MIC against P. aeruginosa: 25 µg/mL
Klebsiella pneumonia; [1]
  MIC against K. pneumonia: 50 µg/mL
Enterobacter cloacae; [1]
  MIC against E. cloacae: 25 µg/mL
Aeromonas hydrophila; [1]
  MIC against A. hydrophila: 12.5 µg/mL
Citrobacter diversus; [1]
  MIC against C. diversus: 25 µg/mL
Moraxella catarrhalis; [1]
  MIC against M. catarrhalis: 50 µg/mL
Proteus mirabilis; [1]
  MIC against P. mirabilis: 25 µg/mL
Proteus vulgaris; [1]
  MIC against P. vulgaris: 12.5 µg/mL
Serratia marcescens; [1]
  MIC against S. marcescens: 25 µg/mL

## PRT763 (ALDRCALNTHGCEHICVNDRSGSYHCECYEGYTLNEDRKTCS; listed as Homo sapiens)
E. coli DH5α
  MIC: 25 µg/mL
E. coli BL21; [2]
  MIC (μg/mL) E. coli BL21: 50 µg/mL
Pseudomonas aeruginosa; [3]
  MIC (μg/mL) P. aeruginosa: 12.5 µg/mL
Klebsiella pneumonia; [4]
  MIC (μg/mL) K. pneumonia: 25 µg/mL
Enterobacter cloacae; [5]
  MIC (μg/mL) E. cloacae: 12.5 µg/mL
Aeromonas hydrophila; [6]
  MIC (μg/mL) A. hydrophila: 25 µg/mL
Citrobacter diversus; [7]
  MIC (μg/mL) C. diversus: 12.5 µg/mL
Moraxella catarrhalis; [8]
  MIC (μg/mL) M. catarrhalis: 12.5 µg/mL
Proteus mirabilis; [9]
  MIC (μg/mL) P. mirabilis: 12.5 µg/mL
Proteus vulgaris; [10]
  MIC (μg/mL) P. vulgaris: 50 µg/mL
Serratia marcescens; [11]
  MIC (μg/mL) S. marcescens: 25 µg/mL

## PRT820 (YGDNCRHSCLCQNGGTCDPVSGHCACPEGWAGLACE; listed as Homo sapiens)
E. coli DH5α
  MIC: 12.5 µg/mL
E. coli BL21; [2]
  MIC (μg/mL) E. coli BL21: 50 µg/mL
Pseudomonas aeruginosa; [3]
  MIC (μg/mL) P. aeruginosa: 12.5 µg/mL
Klebsiella pneumonia; [4]
  MIC (μg/mL) K. pneumonia: 50 µg/mL
Enterobacter cloacae; [5]
  MIC (μg/mL) E. cloacae: 12.5 µg/mL
Aeromonas hydrophila; [6]
  MIC (μg/mL) A. hydrophila: 50 µg/mL
Citrobacter diversus; [7]
  MIC (μg/mL) C. diversus: 12.5 µg/mL
Moraxella catarrhalis; [8]
  MIC (μg/mL) M. catarrhalis: 50 µg/mL
Proteus mirabilis; [9]
  MIC (μg/mL) P. mirabilis: 12.5 µg/mL
Proteus vulgaris; [10]
  MIC (μg/mL) P. vulgaris: 12.5 µg/mL
Serratia marcescens; [11]
  MIC (μg/mL) S. marcescens: 25 µg/mL
